Values belong to the molecule of their own block, whether it stands above or below them.
Key:
Test in all cases: -log10 GI50 (growth inhibition 50%) (-log10(M)); higher = more potent growth inhibition
[1] = tested on: MDAMB134VI
Procedure, shortened: (§1)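 Breast cancer cell lines were exposed to each compound for 72 hours at nine doses in 1:5 serial dilution, in triplicate, with a luminescence read-out against a time-zero plate. A Gompertz curve was fitted to the dose-response data by nonlinear least squares. The value is minus log10 of GI50, the molar concentration giving the set level of growth inhibition. Values equal to the top dose carry a < qualifier.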

[2] = tested on: HCC1569
Procedure, shortened: as §1

[3] = tested on: MDAMB157
Procedure, shortened: as §1

[4] = tested on: T47D
Procedure, shortened: as §1

[5] = tested on: SUM159PT
Procedure, shortened: as §1

[6] = tested on: SUM52PE
Procedure, shortened: as §1

[7] = tested on: SUM185PE
Procedure, shortened: as §1

[8] = tested on: ZR75B
Procedure, shortened: as §1

[9] = tested on: MCF10F
Procedure, shortened: as §1

[10] = tested on: HCC1419
Procedure, shortened: as §1

[11] = tested on: SUM229PE
Procedure, shortened: as §1

[12] = tested on: MCF12A
Procedure, shortened: as §1

[13] = tested on: BT549
Procedure, shortened: as §1

[14] = tested on: BT20
Procedure, shortened: as §1

[15] = tested on: 184B5
Procedure, shortened: as §1

[16] = tested on: CAMA1
Procedure, shortened: as §1

[17] = tested on: SUM149PT
Procedure, shortened: as §1

[18] = tested on: MCF7
Procedure, shortened: as §1

[19] = tested on: MX1
Procedure, shortened: as §1

[20] = tested on: UACC812
Procedure, shortened: as §1

[21] = tested on: MDAMB175VII
Procedure, shortened: as §1

[22] = tested on: MDAMB361
Procedure, shortened: as §1

[23] = tested on: BT483
Procedure, shortened: as §1

[24] = tested on: BT474
Procedure, shortened: as §1

[25] = tested on: 184A1
Procedure, shortened: as §1

[26] = tested on: LY2
Procedure, shortened: as §1

[27] = tested on: T47D_KBluc
Procedure, shortened: as §1

[28] = tested on: HCC1937
Procedure, shortened: as §1

[29] = tested on: HCC38
Procedure, shortened: as §1

[30] = tested on: AU565
Procedure, shortened: as §1

[31] = tested on: MDAMB415
Procedure, shortened: as §1

[32] = tested on: HCC2185
Procedure, shortened: as §1

[33] = tested on: HS578T
Procedure, shortened: as §1

[34] = tested on: HCC1428
Procedure, shortened: as §1

[35] = tested on: 600MPE
Procedure, shortened: as §1

[36] = tested on: HCC1395
Procedure, shortened: as §1

[37] = tested on: HCC1806
Procedure, shortened: as §1

[38] = tested on: MCF10A
Procedure, shortened: as §1

[39] = tested on: HCC3153
Procedure, shortened: as §1

[40] = tested on: HCC1954
Procedure, shortened: as §1

[41] = tested on: MDAMB231
Procedure, shortened: as §1

[42] = tested on: MDAMB453
Procedure, shortened: as §1

[43] = tested on: ZR751
Procedure, shortened: as §1

[44] = tested on: SUM1315MO2
Procedure, shortened: as §1

[45] = tested on: HCC1143
Procedure, shortened: as §1

[46] = tested on: SUM225CWN
Procedure, shortened: as §1

[47] = tested on: SKBR3
Procedure, shortened: as §1

[48] = tested on: HCC1187
Procedure, shortened: as §1

[49] = tested on: HCC70
Procedure, shortened: as §1

-log10 GI50 [1]: 6.2 | -log10 GI50 [2]: < 4.3 | -log10 GI50 [3]: < 4.3 | -log10 GI50 [4]: < 4.3 | -log10 GI50 [10]: 4.75 | -log10 GI50 [13]: < 4.3 | -log10 GI50 [14]: < 4.3 | -log10 GI50 [18]: < 4.3 | -log10 GI50 [21]: 5.59 | -log10 GI50 [22]: < 4.3 | -log10 GI50 [23]: < 4.3 | -log10 GI50 [24]: < 4.3 | -log10 GI50 [27]: < 4.3 | -log10 GI50 [28]: < 4.3 | -log10 GI50 [29]: < 4.3 | -log10 GI50 [31]: 4.96 | -log10 GI50 [32]: < 4.3 | -log10 GI50 [34]: < 4.3 | -log10 GI50 [36]: 4.42 | -log10 GI50 [37]: < 4.3 | -log10 GI50 [39]: < 4.3 | -log10 GI50 [40]: 5.84 | -log10 GI50 [41]: < 4.3 | -log10 GI50 [42]: < 4.3 | -log10 GI50 [45]: < 4.3 | -log10 GI50 [47]: < 4.3 | -log10 GI50 [48]: < 4.3
SMILES: Cn1cnc2c(F)c(Nc3ccc(Br)cc3Cl)c(C(=O)NOCCO)cc21 [AZD6244]
-log10 GI50 [5]: 6.66 | -log10 GI50 [6]: 5.01 | -log10 GI50 [7]: < 4.3 | -log10 GI50 [8]: < 4.3 | -log10 GI50 [9]: 5.62 | -log10 GI50 [11]: 7.13 | -log10 GI50 [12]: 6.69 | -log10 GI50 [15]: 6.9 | -log10 GI50 [16]: < 4.3 | -log10 GI50 [17]: 6.32 | -log10 GI50 [19]: 6.34 | -log10 GI50 [20]: < 4.3 | -log10 GI50 [25]: 6.5 | -log10 GI50 [26]: < 4.3 | -log10 GI50 [30]: < 4.3 | -log10 GI50 [33]: 4.75 | -log10 GI50 [35]: 6.24 | -log10 GI50 [38]: 6.71 | -log10 GI50 [43]: 4.75 | -log10 GI50 [44]: 5.57 | -log10 GI50 [46]: < 4.3 | -log10 GI50 [49]: 5.75

SMILES: O=c1[nH]c2ccccc2n1C1CCN(Cc2ccc(-c3[nH]c4cc5ncnc5cc4nc3-c3ccccc3)cc2)CC1 [Akt inhibitor VIII]
-log10 GI50 [1]: 5.05 | -log10 GI50 [2]: 5.07 | -log10 GI50 [3]: 4.86 | -log10 GI50 [4]: 5.78 | -log10 GI50 [5]: 5.12 | -log10 GI50 [6]: 5.85 | -log10 GI50 [7]: 5.95 | -log10 GI50 [8]: 5.93 | -log10 GI50 [9]: 5.42 | -log10 GI50 [10]: 6.03 | -log10 GI50 [11]: 4.94 | -log10 GI50 [12]: 5.01 | -log10 GI50 [13]: 5.08 | -log10 GI50 [14]: 5.09 | -log10 GI50 [15]: 5.56 | -log10 GI50 [16]: 5.17 | -log10 GI50 [17]: 4.96 | -log10 GI50 [18]: 5.77 | -log10 GI50 [19]: 5.45 | -log10 GI50 [20]: 5.45 | -log10 GI50 [21]: 5.75 | -log10 GI50 [22]: 6.06 | -log10 GI50 [23]: 6.2 | -log10 GI50 [24]: 6.08 | -log10 GI50 [25]: 5.58 | -log10 GI50 [26]: 5.85 | -log10 GI50 [27]: 5.31 | -log10 GI50 [28]: 5 | -log10 GI50 [29]: 4.9 | -log10 GI50 [30]: 5.61 | -log10 GI50 [31]: 5.7 | -log10 GI50 [32]: 5.86 | -log10 GI50 [33]: 4.89 | -log10 GI50 [34]: 5.35 | -log10 GI50 [35]: 5.15 | -log10 GI50 [36]: 5.25 | -log10 GI50 [37]: 5.05 | -log10 GI50 [38]: 5.34 | -log10 GI50 [39]: 5.01 | -log10 GI50 [40]: 5.08 | -log10 GI50 [41]: 4.82 | -log10 GI50 [42]: 5.73 | -log10 GI50 [43]: 6.13 | -log10 GI50 [44]: 5.34 | -log10 GI50 [45]: 4.87 | -log10 GI50 [46]: 6.16 | -log10 GI50 [47]: 5.68 | -log10 GI50 [48]: 5.43 | -log10 GI50 [49]: 5.74
